Test results: patent US20020065315A1, “Ion channel modulating agents” (priority 1999, published 2002)

Tests used:
T cells = assay: Inhibition of T cell proliferation (antigen PPD induced, [3H]thymidine incorporation); assay type: cell-based; details: PPD (10 μg/ml), 144 hours culture, mean of triplicate cultures
Experimental: The chemical compounds used according to the invention prevent immunological proliferation by selective inhibition of the Ca^2+-activated K-channels in T- and B-lymphocytes. This effect may be verified using various proliferation assays. In this experiment the proliferative assay described by Ødum et al [Ødum N, Kanner S B, Ledbetter J A, & Svejgaard A; J. Immunol. 1993 150 (12) 5289-5298] was used.
Assays were performed in culture medium (RPMI 1640; available from Gibco, Grand Island, N.Y.) supplemented with 10% pooled human serum, 2 mM L-glutamine, 100 μg/ml penicillin, and 100 μg/ml streptomycin (available from Novo Nordisk, Copenhagen, Denmark) in 96-well round bottom tissue culture plates (available from Nunc, Roskilde, Denmark) with a final volume of 200 μl.
T cells were pre-incubated for three hours with the test compounds before addition of antigen (PPD, purified protein derivative, 10 μg/ml). T cells were cultured at 5×10^4 cells/well for 144 hours. Twelve hours before harvest, [^3H]thymidine ([…]) was added. The cells were harvested onto glass fibre filters, and the [^3H]thymidine incorporation was measured in a scintillation counter. The results were expressed as mean counts per minute (cpm) from triplicate cultures.

Row | Structure (SMILES) | melting point [°C] | T Cell Proliferation (T cells; test compound 2.5 μM) [cpm × 10^−3] | T Cell Proliferation (T cells; test compound 10 μM) [cpm × 10^−3] | T Cell Proliferation (T cells; test compound 25 μM) [cpm × 10^−3]
1 | Cc1ccc(C)n1-c1c(-c2ccccc2)cc(Cl)cc1-c1ccccc1 | 178 to 180 |  |  | 
2 | CC(C)c1cccc(C(C)C)c1-c1cccnc1 [Compound 1B, 3-(2,6-diisopropylphenyl)-pyridine] |  | 19.5 | 19 | 14
